Key:
Bile salt export pump = Bile salt export pump (Homo sapiens, UniProt O95342); assay type: functional
[1] = target: Voltage-gated inwardly rectifying potassium channel KCNH2 (Homo sapiens, UniProt Q12809); assay type: functional
Prothrombin = Prothrombin (Homo sapiens, UniProt P00734); assay type: functional
[2] = target: T1, Muscarinic acetylcholine receptor M2 (Homo sapiens, UniProt P08172)
T1 sequence (P08172 whole entry): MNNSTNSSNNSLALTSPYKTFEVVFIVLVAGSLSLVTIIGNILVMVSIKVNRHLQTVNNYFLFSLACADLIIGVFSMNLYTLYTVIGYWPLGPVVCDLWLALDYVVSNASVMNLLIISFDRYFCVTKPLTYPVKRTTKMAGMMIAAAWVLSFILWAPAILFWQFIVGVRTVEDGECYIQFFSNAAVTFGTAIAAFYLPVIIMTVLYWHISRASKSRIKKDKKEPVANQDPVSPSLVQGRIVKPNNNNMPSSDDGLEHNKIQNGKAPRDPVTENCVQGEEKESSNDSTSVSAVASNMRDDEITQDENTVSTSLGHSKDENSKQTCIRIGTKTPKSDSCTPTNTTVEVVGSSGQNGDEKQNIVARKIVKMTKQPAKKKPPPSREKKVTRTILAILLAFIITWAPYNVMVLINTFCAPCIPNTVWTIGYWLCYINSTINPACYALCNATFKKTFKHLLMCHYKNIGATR

Acetylcholinesterase = Acetylcholinesterase (Homo sapiens, UniProt P22303); assay type: functional
Chain of Acetylcholinesterase (P22303 whole entry): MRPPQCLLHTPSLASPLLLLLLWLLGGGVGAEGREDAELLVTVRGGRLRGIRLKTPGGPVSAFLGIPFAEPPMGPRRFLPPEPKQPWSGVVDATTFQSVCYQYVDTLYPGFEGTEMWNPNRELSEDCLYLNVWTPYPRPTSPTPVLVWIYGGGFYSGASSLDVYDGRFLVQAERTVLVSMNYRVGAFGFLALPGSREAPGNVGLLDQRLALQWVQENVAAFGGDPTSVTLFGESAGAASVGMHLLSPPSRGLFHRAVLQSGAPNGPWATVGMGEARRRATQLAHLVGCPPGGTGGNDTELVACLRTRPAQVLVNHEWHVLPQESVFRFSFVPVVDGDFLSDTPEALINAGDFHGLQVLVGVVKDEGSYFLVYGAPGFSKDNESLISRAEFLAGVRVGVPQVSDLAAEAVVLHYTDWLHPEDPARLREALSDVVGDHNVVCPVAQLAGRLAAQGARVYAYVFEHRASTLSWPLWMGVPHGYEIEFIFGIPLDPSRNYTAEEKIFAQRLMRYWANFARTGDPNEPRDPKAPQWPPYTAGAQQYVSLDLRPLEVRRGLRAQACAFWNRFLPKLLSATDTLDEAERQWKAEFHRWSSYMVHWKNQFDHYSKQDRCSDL

Histamine H3 receptor = Histamine H3 receptor (Homo sapiens, UniProt Q9Y5N1)
Progesterone receptor = target: T2, Progesterone receptor (Homo sapiens, UniProt P06401)
T2 sequence (P06401 whole entry): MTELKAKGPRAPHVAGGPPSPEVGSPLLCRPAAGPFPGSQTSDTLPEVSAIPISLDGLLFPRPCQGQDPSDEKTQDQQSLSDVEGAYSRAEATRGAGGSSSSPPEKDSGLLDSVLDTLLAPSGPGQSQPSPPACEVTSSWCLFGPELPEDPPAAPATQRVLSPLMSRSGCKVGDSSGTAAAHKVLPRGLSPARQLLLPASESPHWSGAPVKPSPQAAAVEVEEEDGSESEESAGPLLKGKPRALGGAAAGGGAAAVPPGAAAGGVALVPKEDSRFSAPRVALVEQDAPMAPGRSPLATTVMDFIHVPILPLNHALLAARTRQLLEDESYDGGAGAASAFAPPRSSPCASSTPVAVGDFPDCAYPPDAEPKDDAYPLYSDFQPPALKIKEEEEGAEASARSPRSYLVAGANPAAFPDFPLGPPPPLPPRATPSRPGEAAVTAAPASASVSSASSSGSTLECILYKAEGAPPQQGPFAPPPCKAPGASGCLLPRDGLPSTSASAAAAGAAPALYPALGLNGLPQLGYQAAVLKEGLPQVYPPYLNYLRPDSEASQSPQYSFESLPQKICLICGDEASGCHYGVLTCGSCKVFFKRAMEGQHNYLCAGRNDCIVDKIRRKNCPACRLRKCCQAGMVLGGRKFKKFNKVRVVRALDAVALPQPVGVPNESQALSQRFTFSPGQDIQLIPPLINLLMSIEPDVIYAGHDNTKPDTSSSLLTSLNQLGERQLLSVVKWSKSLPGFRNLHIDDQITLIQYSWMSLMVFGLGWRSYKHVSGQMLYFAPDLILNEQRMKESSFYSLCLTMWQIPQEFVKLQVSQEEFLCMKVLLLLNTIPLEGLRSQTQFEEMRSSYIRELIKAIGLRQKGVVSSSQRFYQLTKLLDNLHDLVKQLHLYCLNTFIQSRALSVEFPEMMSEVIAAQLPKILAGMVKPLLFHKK

Mu-type opioid receptor = Mu-type opioid receptor (Homo sapiens, UniProt P35372)
Chain of Mu-type opioid receptor (P35372 whole entry): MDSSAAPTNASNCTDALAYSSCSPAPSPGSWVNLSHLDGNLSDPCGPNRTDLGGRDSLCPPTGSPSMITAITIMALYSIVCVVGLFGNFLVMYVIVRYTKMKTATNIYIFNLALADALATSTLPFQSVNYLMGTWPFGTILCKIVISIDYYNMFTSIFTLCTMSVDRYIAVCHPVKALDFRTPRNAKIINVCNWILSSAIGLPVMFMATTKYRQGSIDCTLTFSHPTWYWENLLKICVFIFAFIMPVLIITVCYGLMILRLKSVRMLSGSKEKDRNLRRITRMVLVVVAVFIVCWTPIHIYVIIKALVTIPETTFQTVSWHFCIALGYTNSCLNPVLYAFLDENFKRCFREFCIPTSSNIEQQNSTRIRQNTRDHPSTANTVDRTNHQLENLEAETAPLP

[3] = target: T3, Amine oxidase [flavin-containing] A (Homo sapiens, UniProt P21397); assay type: functional
T3 sequence (P21397 whole entry): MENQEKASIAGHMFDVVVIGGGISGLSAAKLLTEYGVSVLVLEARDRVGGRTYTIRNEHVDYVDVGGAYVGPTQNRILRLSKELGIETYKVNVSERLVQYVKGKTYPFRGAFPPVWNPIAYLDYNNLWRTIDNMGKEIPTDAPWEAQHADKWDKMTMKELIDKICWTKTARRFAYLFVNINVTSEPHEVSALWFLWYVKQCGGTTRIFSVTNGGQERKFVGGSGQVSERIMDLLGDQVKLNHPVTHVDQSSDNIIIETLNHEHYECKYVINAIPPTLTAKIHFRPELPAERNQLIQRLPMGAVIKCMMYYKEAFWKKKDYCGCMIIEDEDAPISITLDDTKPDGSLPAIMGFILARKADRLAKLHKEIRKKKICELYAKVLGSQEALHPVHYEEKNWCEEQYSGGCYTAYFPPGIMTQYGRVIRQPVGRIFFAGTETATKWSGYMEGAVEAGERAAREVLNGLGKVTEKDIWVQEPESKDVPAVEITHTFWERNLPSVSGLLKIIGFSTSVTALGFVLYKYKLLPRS

Thromboxane A2 receptor = target: T4, Thromboxane A2 receptor (Homo sapiens, UniProt P21731); assay type: functional, cell-based
T4 sequence (P21731 whole entry): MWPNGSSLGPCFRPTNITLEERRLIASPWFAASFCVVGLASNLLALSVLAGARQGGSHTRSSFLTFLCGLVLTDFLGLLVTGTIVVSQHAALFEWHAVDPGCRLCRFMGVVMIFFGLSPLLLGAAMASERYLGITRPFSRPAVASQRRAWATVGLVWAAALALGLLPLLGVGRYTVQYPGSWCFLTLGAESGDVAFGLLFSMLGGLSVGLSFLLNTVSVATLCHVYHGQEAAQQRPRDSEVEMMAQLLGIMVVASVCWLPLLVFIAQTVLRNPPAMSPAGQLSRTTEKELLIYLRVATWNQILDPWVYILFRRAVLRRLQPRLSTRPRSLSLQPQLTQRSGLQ

D(3) dopamine receptor = D(3) dopamine receptor (Homo sapiens, UniProt P35462)
Chain of D(3) dopamine receptor (P35462 whole entry): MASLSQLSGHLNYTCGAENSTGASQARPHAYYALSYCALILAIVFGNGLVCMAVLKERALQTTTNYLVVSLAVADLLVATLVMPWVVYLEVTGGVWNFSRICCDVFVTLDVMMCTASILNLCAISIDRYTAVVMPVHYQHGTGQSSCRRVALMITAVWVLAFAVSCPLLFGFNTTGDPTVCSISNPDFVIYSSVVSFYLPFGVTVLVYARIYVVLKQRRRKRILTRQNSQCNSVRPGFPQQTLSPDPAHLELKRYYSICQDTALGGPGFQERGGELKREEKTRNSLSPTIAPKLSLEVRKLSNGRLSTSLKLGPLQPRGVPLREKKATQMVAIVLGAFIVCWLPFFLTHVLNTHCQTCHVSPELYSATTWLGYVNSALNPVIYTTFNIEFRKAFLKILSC

[4] = target: cGMP-inhibited 3',5'-cyclic phosphodiesterase 3A (Homo sapiens, UniProt Q14432); assay type: functional
Chain of cGMP-inhibited 3',5'-cyclic phosphodiesterase 3A (Q14432 whole entry): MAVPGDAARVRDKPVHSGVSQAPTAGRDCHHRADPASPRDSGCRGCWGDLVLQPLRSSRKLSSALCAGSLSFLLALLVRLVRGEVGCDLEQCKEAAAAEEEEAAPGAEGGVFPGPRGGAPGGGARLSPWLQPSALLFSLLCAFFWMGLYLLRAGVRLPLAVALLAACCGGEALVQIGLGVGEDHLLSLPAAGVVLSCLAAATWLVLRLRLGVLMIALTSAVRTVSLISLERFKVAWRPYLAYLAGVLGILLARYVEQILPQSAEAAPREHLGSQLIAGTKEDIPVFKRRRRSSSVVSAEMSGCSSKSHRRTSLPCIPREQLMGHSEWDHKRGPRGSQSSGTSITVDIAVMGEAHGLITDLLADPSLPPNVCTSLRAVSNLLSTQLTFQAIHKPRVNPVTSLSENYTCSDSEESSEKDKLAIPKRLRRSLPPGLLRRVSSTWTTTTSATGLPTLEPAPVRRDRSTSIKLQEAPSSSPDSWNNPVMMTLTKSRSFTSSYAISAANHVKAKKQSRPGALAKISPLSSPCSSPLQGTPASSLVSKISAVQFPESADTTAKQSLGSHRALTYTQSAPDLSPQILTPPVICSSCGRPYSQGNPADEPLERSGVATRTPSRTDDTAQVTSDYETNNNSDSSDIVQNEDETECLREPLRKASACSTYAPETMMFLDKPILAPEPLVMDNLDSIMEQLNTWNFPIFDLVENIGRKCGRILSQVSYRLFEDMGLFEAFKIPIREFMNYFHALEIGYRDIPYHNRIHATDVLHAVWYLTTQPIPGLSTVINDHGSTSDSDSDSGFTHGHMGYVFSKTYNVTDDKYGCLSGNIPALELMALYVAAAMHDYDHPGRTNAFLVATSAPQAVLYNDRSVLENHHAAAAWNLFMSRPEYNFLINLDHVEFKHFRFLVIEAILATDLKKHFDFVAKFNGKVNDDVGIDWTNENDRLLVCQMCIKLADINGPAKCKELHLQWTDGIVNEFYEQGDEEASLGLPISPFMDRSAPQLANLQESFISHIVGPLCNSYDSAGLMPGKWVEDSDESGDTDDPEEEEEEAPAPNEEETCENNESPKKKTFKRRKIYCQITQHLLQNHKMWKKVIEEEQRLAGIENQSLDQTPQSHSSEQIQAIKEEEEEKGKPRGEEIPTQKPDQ

D(1A) dopamine receptor = D(1A) dopamine receptor (Homo sapiens, UniProt P21728)
Chain of D(1A) dopamine receptor (P21728 whole entry): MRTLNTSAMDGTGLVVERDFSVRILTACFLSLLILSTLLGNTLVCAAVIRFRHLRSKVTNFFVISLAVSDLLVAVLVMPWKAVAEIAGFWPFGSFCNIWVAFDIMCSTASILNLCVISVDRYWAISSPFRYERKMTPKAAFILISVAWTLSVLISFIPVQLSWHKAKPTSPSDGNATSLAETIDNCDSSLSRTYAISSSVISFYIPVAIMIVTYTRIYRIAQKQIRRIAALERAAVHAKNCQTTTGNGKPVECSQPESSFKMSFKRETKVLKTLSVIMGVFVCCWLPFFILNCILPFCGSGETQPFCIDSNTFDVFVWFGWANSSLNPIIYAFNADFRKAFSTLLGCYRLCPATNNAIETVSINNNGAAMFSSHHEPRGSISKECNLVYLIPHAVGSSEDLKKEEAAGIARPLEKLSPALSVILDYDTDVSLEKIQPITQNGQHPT

[5] = target: 3',5'-cyclic-AMP phosphodiesterase 4A (Homo sapiens, UniProt P27815); assay type: functional
Chain of 3',5'-cyclic-AMP phosphodiesterase 4A (P27815 whole entry): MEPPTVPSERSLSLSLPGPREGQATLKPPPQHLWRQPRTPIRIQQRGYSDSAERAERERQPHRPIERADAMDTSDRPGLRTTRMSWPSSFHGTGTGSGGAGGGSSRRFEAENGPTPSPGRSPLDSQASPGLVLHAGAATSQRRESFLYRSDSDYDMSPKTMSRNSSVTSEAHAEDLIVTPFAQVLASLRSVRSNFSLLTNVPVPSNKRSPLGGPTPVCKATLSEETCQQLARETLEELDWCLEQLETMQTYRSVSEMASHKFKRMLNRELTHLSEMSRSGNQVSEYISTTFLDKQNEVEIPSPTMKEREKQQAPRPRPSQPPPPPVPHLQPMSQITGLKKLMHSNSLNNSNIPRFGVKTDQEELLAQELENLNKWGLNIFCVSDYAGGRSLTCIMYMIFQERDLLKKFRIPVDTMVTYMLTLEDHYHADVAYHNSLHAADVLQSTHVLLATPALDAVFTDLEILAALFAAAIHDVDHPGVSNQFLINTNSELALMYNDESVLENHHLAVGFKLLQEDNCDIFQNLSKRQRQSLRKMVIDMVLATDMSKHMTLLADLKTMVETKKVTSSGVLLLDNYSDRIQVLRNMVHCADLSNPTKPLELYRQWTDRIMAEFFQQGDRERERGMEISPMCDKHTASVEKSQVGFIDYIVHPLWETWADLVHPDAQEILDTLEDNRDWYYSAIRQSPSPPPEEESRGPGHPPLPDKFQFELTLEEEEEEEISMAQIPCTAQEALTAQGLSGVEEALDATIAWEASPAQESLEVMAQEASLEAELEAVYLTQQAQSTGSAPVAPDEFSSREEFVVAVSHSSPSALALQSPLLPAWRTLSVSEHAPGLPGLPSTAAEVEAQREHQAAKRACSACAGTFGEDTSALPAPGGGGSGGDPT

[6] = target: T5, Prostaglandin G/H synthase 1 (Homo sapiens, UniProt P23219); assay type: functional
[7] = target: T5, Prostaglandin G/H synthase 1; assay type: functional; remark: listed apart in the source
Also: assay procedure not described here.

Chain of Voltage-gated inwardly rectifying potassium channel KCNH2 (Q12809 whole entry): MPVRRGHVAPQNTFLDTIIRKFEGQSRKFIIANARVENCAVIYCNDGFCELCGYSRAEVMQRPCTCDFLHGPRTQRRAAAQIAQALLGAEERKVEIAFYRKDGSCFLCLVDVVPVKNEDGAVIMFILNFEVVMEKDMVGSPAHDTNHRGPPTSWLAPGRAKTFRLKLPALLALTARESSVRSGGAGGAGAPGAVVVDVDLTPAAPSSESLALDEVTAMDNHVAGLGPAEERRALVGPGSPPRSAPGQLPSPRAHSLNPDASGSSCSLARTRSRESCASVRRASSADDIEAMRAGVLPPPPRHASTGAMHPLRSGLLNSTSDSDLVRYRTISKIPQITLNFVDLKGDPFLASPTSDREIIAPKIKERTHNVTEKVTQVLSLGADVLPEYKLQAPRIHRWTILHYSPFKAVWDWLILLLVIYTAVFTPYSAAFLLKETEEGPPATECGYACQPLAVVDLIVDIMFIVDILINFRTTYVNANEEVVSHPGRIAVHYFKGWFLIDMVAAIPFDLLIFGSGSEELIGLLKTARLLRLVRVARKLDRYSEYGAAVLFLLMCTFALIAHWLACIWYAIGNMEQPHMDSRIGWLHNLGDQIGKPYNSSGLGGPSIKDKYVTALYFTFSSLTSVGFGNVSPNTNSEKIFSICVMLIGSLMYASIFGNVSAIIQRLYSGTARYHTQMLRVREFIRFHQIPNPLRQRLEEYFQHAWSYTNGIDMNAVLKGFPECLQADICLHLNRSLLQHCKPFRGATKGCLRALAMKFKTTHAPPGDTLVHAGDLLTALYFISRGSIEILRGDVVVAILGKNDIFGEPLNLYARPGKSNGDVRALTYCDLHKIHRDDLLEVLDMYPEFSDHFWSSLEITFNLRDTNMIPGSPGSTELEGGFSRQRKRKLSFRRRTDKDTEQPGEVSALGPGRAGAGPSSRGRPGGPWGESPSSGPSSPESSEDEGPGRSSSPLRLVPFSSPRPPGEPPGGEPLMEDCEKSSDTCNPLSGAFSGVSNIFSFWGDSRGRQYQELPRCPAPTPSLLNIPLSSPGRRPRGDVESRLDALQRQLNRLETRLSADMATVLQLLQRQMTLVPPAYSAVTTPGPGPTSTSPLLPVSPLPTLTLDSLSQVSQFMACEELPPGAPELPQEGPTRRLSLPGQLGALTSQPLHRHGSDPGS

C[C@]12C=CC(=O)N[C@@H]1CC[C@@H]1[C@@H]2CC[C@]2(C)[C@@H](C(=O)Nc3cc(C(F)(F)F)ccc3C(F)(F)F)CC[C@@H]12 [DUTASTERIDE]
AC50 (Bile salt export pump): 14 µM
AC50 [1]: > 30 µM

CC(C)c1nc(N(C)S(C)(=O)=O)nc(-c2ccc(F)cc2)c1/C=C/[C@@H](O)C[C@@H](O)CC(=O)O [ROSUVASTATIN]
AC50 (Bile salt export pump): 160 µM
AC50 [1]: > 30 µM

CC(S)C(=O)NCC(=O)O (stereo not drawn) [TIOPRONIN]
AC50 (Bile salt export pump): > 300 µM
AC50 [1]: > 30 µM

O=C1C(CC[S+]([O-])c2ccccc2)C(=O)N(c2ccccc2)N1c1ccccc1 (stereo not drawn) [SULFINPYRAZONE]
AC50 (Bile salt export pump): 24 µM
AC50 [1]: > 30 µM

Nc1ccc(S(=O)(=O)Nc2nccs2)cc1 [SULFATHIAZOLE]
AC50 (Bile salt export pump): > 300 µM
AC50 [1]: > 30 µM

CO[C@H]1/C=C/O[C@@]2(C)Oc3c(C)c(O)c4c(O)c(c(/C=N/N5CCN(C)CC5)c(O)c4c3C2=O)NC(=O)/C(C)=C\C=C\[C@H](C)[C@H](O)[C@@H](C)[C@@H](O)[C@@H](C)[C@H](OC(C)=O)[C@@H]1C [RIFAMPIN]
AC50 (Bile salt export pump): 9.6 µM
AC50 [1]: > 30 µM

CC(C)Cc1ccc(C(C)C(=O)O)cc1 (stereo not drawn) [IBUPROFEN]
AC50 (Prothrombin): > 30 µM
AC50 [2]: > 30 µM
AC50 (Acetylcholinesterase): > 30 µM
AC50 (Bile salt export pump): > 300 µM
AC50 (Histamine H3 receptor): > 30 µM
AC50 (Progesterone receptor): > 30 µM
AC50 (Mu-type opioid receptor): > 30 µM
AC50 [3]: > 30 µM
AC50 (Thromboxane A2 receptor): > 30 µM
AC50 (D(3) dopamine receptor): > 30 µM
AC50 [4]: > 30 µM
AC50 (D(1A) dopamine receptor): > 30 µM
AC50 [5]: > 30 µM

Cc1onc(-c2ccccc2)c1-c1ccc(S(N)(=O)=O)cc1 [VALDECOXIB]
AC50 (Prothrombin): > 30 µM
AC50 [2]: > 30 µM
AC50 (Acetylcholinesterase): > 30 µM
AC50 (Bile salt export pump): 240 µM
AC50 (Histamine H3 receptor): > 30 µM
AC50 (Progesterone receptor): > 30 µM
AC50 (Mu-type opioid receptor): > 30 µM
AC50 [3]: > 30 µM
AC50 (Thromboxane A2 receptor): > 30 µM
AC50 [1]: > 30 µM
AC50 (D(3) dopamine receptor): > 30 µM
AC50 [4]: > 30 µM
AC50 (D(1A) dopamine receptor): > 30 µM
AC50 [5]: 18.7 µM

O=C1CCc2cc(OCCCCc3nnnn3C3CCCCC3)ccc2N1 [CILOSTAZOL]
AC50 (Bile salt export pump): 62 µM
AC50 [1]: > 30 µM

C[C@H]1c2cccc(O)c2C(=O)C2=C(O)[C@]3(O)C(=O)C(C(N)=O)=C(O)[C@@H](N(C)C)[C@@H]3[C@@H](O)[C@@H]21 [DOXYCYCLINE]
AC50 (Bile salt export pump): > 300 µM
AC50 [1]: > 30 µM

CN1C[C@H](C(=O)N[C@]2(C)O[C@@]3(O)[C@@H]4CCCN4C(=O)[C@H](Cc4ccccc4)N3C2=O)C=C2c3cccc4[nH]cc(c34)C[C@H]21 [ERGOTAMINE]
AC50 (Bile salt export pump): 25 µM
AC50 [1]: 14.4 µM

CN1C(C(=O)Nc2ccccn2)=C(O)c2ccccc2S1(=O)=O [PIROXICAM]
AC50 (Prothrombin): > 30 µM
AC50 [2]: > 30 µM
AC50 (Acetylcholinesterase): > 30 µM
AC50 (Bile salt export pump): 200 µM
AC50 (Histamine H3 receptor): > 30 µM
AC50 (Progesterone receptor): > 30 µM
AC50 (Mu-type opioid receptor): > 30 µM
AC50 [3]: > 30 µM
AC50 (Thromboxane A2 receptor): > 30 µM
AC50 [1]: > 30 µM
AC50 (D(3) dopamine receptor): > 30 µM
AC50 [4]: > 30 µM
AC50 (D(1A) dopamine receptor): > 30 µM
AC50 [5]: > 30 µM

C=CC[C@@H]1/C=C(\C)C[C@H](C)C[C@H](OC)[C@H]2O[C@@](O)(C(=O)C(=O)N3CCCC[C@H]3C(=O)O[C@H](/C(C)=C/[C@@H]3CC[C@@H](O)[C@H](OC)C3)[C@H](C)[C@@H](O)CC1=O)[C@H](C)C[C@@H]2OC [TACROLIMUS ANHYDROUS]
AC50 (Bile salt export pump): 11 µM
AC50 [1]: > 30 µM

C[C@H](CCC(=O)O)[C@H]1CC[C@H]2[C@@H]3[C@@H](O)C[C@@H]4C[C@H](O)CC[C@]4(C)[C@H]3CC[C@]12C [URSODIOL]
AC50 (Bile salt export pump): 95 µM
AC50 [1]: > 30 µM

C[C@@H]1C[C@H]2[C@@H]3CCC4=CC(=O)C=C[C@]4(C)[C@@]3(Cl)[C@@H](O)C[C@]2(C)[C@@]1(OC(=O)c1ccco1)C(=O)CCl [MOMETASONE FUROATE]
AC50 (Prothrombin): > 30 µM
AC50 [6]: > 30 µM
AC50 [2]: > 30 µM
AC50 (Acetylcholinesterase): > 30 µM
AC50 (Bile salt export pump): 2.4 µM
AC50 (Histamine H3 receptor): > 30 µM
AC50 (Mu-type opioid receptor): > 30 µM
AC50 [3]: > 30 µM
AC50 (Thromboxane A2 receptor): > 30 µM
AC50 [1]: > 30 µM
AC50 (D(3) dopamine receptor): > 30 µM
AC50 [4]: > 30 µM
AC50 (D(1A) dopamine receptor): > 30 µM
AC50 [5]: > 30 µM
AC50 [7]: 13.7 µM

C[C@@H](NCCCc1cccc(C(F)(F)F)c1)c1cccc2ccccc12
AC50 (Bile salt export pump): 58 µM
AC50 [1]: 1.3 µM

CC(C)(C)NCC(O)c1cc(O)cc(O)c1 (stereo not drawn) [TERBUTALINE]
AC50 (Bile salt export pump): > 300 µM
AC50 [1]: > 30 µM

CC(C(=O)O)c1ccc2c(c1)[nH]c1ccc(Cl)cc12 (stereo not drawn) [CARPROFEN]
AC50 (Bile salt export pump): 120 µM
AC50 [1]: > 30 µM

CN(C)CCc1c[nH]c2ccc(Cn3cncn3)cc12 [RIZATRIPTAN]
AC50 (Bile salt export pump): > 300 µM
AC50 [1]: > 30 µM

COc1ccc(CC2c3cc(OC)c(OC)cc3CC[N+]2(C)CCC(=O)OCCCCCOC(=O)CC[N+]2(C)CCc3cc(OC)c(OC)cc3C2Cc2ccc(OC)c(OC)c2)cc1OC (stereo not drawn)
AC50 (Bile salt export pump): 170 µM
AC50 [1]: 0.16 µM

CCN1CCN(Cc2ccc(Nc3ncc(F)c(-c4cc(F)c5nc(C)n(C(C)C)c5c4)n3)nc2)CC1 [ABEMACICLIB]
AC50 (Bile salt export pump): 33 µM
AC50 [1]: 6 µM

COc1ccccc1Oc1c(NS(=O)(=O)c2ccc(C(C)(C)C)cc2)nc(-c2ncccn2)nc1OCCO [BOSENTAN]
AC50 (Bile salt export pump): 18 µM
AC50 [1]: > 30 µM

COc1cc2nc(N3CCN(C(=O)C4CCCO4)CC3)nc(N)c2cc1OC (stereo not drawn) [TERAZOSIN]
AC50 (Prothrombin): > 10 µM
AC50 [6]: > 30 µM
AC50 [2]: > 30 µM
AC50 (Acetylcholinesterase): 22.9 µM
AC50 (Bile salt export pump): > 300 µM
AC50 (Histamine H3 receptor): > 30 µM
AC50 (Mu-type opioid receptor): > 30 µM
AC50 [3]: > 30 µM
AC50 (Thromboxane A2 receptor): > 30 µM
AC50 (D(3) dopamine receptor): > 30 µM
AC50 [4]: > 30 µM
AC50 (D(1A) dopamine receptor): 27.8 µM
AC50 [5]: > 30 µM
AC50 [7]: > 30 µM

O=C1CN(/N=C/c2ccc(-c3ccc([N+](=O)[O-])cc3)o2)C(O)=N1 [DANTROLENE]
AC50 (Bile salt export pump): 35 µM
AC50 [1]: > 30 µM
